Experimental data: patent US20160095865A1, “APPLICATION OF ENROFLOXACIN SALT IN PREPARATION OF ORAL PREPARATION FOR PIGS” (GUANGZHOU INSIGHTER BIOTECHNOLOGY CO., LTD., priority 2013, published 2016)
Counter-ions that a name gives are not always drawn.

What was measured:
[1] = tested on: duroc-landrace-yorkshire hybrid pigs; test: Influence of enrofloxacin base, sodium salt and hydrochloride on palatability of pig feed (Embodiment 2); format: in vivo; conditions: compared with blank control group
Method: Enrofloxacin base, enrofloxacin sodium and enrofloxacin hydrochloride were respectively added in feed in each group. All the test pigs were synchronously fasted for 12 h before testing. The test pigs in each group were respectively subjected to free feed intake of feed containing enrofloxacin in different forms after the 12 h fast. […] Feed consumption of different test groups was subjected to statistics and the influence of different forms of the enrofloxacin added in the feed on the feed intake of the pigs was evaluated. The pure feed which was not added with the enrofloxacin or the salt thereof was taken as control.

[2] = tested on: pathogenic escherichia coli SGD strain; test: Protection against escherichia coli artificial (challenge) infection in weaned piglets (Embodiment 9); format: in vivo, pigs; conditions: for Death rate: challenged control 60; for Incidence rate (%, calculated by diarrhea): challenged control 100
Method: The 33-day-old pigs were intramuscularly injected with pathogenic escherichia coli, the diarrhea and deaths of the pigs were observed, continuous observation was performed for one week, the onset and deaths were subjected to statistics, and the protection effects of the enrofloxacin in different forms against the pathogenic escherichia coli in the artificial infection were compared. Pure feed which was not added with the enrofloxacin in any form was taken as a control group, wherein one portion of pigs in the control group were intramuscularly injected with the pathogenic escherichia coli and was taken as the control group without administration but with challenge (the fifth group), and the remainder were not intramuscularly injected with the pathogenic escherichia coli and was taken as the control group without administration and without challenge (the sixth group).

[3] = tested on: sensitive bacteria; conditions: overwhelming majority of strains of sensitive bacteria; cited from earlier work
[4] = Pharmacokinetic research in pigs, plasma concentration by HPLC (Embodiment 8); format: in vivo; conditions: piglets
Method: Jugular venous blood collection was performed at 30 min, 1 h, 2 h, 4 h, 8 h, 12 h and 24 h after administration. Plasma was separated, the concentration of the enrofloxacin in the plasma in the different test pigs after administration was determined by high-performance liquid chromatography respectively, and whether the difference in the concentration of the enrofloxacin in the plasma in each test group after administration was significant or not and whether the elimination rule of the enrofloxacin in blood was consistent or not was subjected to statistical analysis.

[5] = 100 ppm equivalent fed twice daily through a gastric tube according to feed intake, challenge 2.0 ×10^7 CFU/pig
[6] = 100 ppm in feed, challenge 2.0 ×10^7 CFU/pig i.m., one week

SMILES: CCN1CCN(c2cc3c(cc2F)c(=O)c(C(=O)O)cn3C2CC2)CC1 [enrofloxacin base, enrofloxacin]
- Decline in feed intake ([1]; 5 ppm in feed): 47.2%
- Decline in feed intake ([1]; 25 ppm in feed): 74.2%
- Decline in feed intake ([1]; 100 ppm in feed): 93.3%
- Death rate [2, 5]: 0%
- Incidence rate (%, calculated by diarrhea) [2, 5]: 0%
- MIC [3]: lower than 1 ug/ml

SMILES: CCN1CCN(c2cc3c(cc2F)c(=O)c(C(=O)[O-])cn3C2CC2)CC1.CCN1CCN(c2cc3c(cc2F)c(=O)c(C(=O)[O-])cn3C2CC2)CC1.[Cu+2] [enrofloxacin copper]
- Plasma concentration (total of enrofloxacin and ciprofloxacin) ([4]; 30 min after 10 mg/kg body weight by gastric tube): 1.417 ± 0.169^A ug/ml
- Plasma concentration (total of enrofloxacin and ciprofloxacin) ([4]; 1 h after 10 mg/kg body weight by gastric tube): 2.121 ± 0.198^B ug/ml
- Plasma concentration (total of enrofloxacin and ciprofloxacin) ([4]; 2 h after 10 mg/kg body weight by gastric tube): 5.187 ± 0.558^C ug/ml
- Plasma concentration (total of enrofloxacin and ciprofloxacin) ([4]; 4 h after 10 mg/kg body weight by gastric tube): 5.465 ± 0.529^D ug/ml
- Plasma concentration (total of enrofloxacin and ciprofloxacin) ([4]; 8 h after 10 mg/kg body weight by gastric tube): 2.986 ± 0.234^E ug/ml
- Plasma concentration (total of enrofloxacin and ciprofloxacin) ([4]; 12 h after 10 mg/kg body weight by gastric tube): 1.785 ± 0.215^F ug/ml
- Plasma concentration (total of enrofloxacin and ciprofloxacin) ([4]; 24 h after 10 mg/kg body weight by gastric tube): 0.294 ± 0.044^G ug/ml
- Death rate [2, 6]: 0%
- Incidence rate (%, calculated by diarrhea) [2, 6]: 0%

SMILES: CCN1CCN(c2cc3c(cc2F)c(=O)c(C(=O)O)cn3C2CC2)CC1 [enrofloxacin hydrochloride]
- Decline in feed intake ([1]; 5 ppm in feed, hydrochloride): 49.5%
- Decline in feed intake ([1]; 25 ppm in feed, hydrochloride): 73.4%
- Decline in feed intake ([1]; 100 ppm in feed, hydrochloride): 93.7%

SMILES: CCN1CCN(c2cc3c(cc2F)c(=O)c(C(=O)[O-])cn3C2CC2)CC1.[Ag+] [enrofloxacin silver]
- Death rate [2, 6]: 0%
- Incidence rate (%, calculated by diarrhea) [2, 6]: 0%

SMILES: CCN1CCN(c2cc3c(cc2F)c(=O)c(C(=O)O)cn3C2CC2)CC1 [enrofloxacin sodium]
- Decline in feed intake ([1]; 5 ppm in feed): 50.8%
- Decline in feed intake ([1]; 25 ppm in feed): 73.1%
- Decline in feed intake ([1]; 100 ppm in feed): 94.1%

SMILES: CCN1CCN(c2cc3c(cc2F)c(=O)c(C(=O)[O-])cn3C2CC2)CC1.CCN1CCN(c2cc3c(cc2F)c(=O)c(C(=O)[O-])cn3C2CC2)CC1.[Zn+2] [enrofloxacin zinc]
- Death rate [2, 6]: 0%
- Incidence rate (%, calculated by diarrhea) [2, 6]: 0%
